# Biological target: SIK2 (Homo sapiens (Human), UniProt Q9H0K1)
# Assay: SIK2 Enzymatic Assay Version 2 (High ATP)
# Format: biochemical
# Settings: 3 mM ATP and 200 μM HDAC5tide final, ADP-Glo Max luminescence
# Procedure, shortened: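 Run at room temperature; SIK2 enzyme at 6 nM (2× final) preincubated with compound 30 min before reaction. ADP formation detected by ADP-Glo Max (2 h reagent, 1 h detection) with luminescence read-out.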
# Chain of SIK2 (Q9H0K1 whole entry, species assumed): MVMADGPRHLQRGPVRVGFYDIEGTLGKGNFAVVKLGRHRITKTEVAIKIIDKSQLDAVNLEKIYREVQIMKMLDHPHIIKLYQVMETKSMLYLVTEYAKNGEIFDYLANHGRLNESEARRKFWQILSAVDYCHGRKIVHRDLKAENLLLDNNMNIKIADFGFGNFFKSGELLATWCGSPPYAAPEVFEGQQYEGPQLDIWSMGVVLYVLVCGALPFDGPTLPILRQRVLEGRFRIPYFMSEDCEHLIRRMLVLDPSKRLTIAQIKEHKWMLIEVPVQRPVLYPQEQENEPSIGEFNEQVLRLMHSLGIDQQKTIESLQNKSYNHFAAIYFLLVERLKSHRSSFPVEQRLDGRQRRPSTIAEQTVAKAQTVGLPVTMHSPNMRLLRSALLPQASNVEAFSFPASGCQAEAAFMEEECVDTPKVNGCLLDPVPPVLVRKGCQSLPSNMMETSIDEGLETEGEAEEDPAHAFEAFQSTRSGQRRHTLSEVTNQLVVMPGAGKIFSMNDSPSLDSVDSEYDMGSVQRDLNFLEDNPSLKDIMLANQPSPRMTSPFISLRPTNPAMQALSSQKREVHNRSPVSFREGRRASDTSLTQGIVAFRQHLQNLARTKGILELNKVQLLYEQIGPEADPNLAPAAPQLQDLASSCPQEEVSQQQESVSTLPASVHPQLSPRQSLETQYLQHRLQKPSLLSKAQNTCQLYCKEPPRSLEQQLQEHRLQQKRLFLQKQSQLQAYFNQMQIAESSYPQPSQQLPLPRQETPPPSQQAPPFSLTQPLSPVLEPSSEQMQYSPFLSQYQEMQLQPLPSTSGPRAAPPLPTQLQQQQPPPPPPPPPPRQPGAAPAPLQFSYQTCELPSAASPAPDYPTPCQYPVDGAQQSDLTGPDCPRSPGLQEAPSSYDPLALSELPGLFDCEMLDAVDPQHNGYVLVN
row,IC50,SMILES
1,7.7 nM,"CCN1CC[C@@H]1COc1cnn(C(F)F)c1-c1ccn2nc(Nc3cnc(C)cn3)cc2c1 [Example 264, 5-[2-(difluoromethyl)-4-[[(2R)-1-ethylazetidin-2-yl]methoxy]pyrazol-3-yl]-N-(5-methylpyrazin-2-yl)pyrazolo[1,5-a]pyridin-2-amine]"
2,7.7 nM,"Cn1ncc(CO[C@@H]2CNC[C@@H]2F)c1-c1ccn2nc(NC(=O)C3CC3)cc2c1 [Example 188, N-[5-[4-[[(3R,4S)-4-fluoropyrrolidin-3-yl]oxymethyl]-2-methyl-pyrazol-3-yl]pyrazolo[1,5-a]pyridin-2-yl]cyclopropanecarboxamide]"
3,< 0.847 nM,"CCN1CC[C@@H]1COc1cnn(C)c1-c1ccn2nc(Nc3ccnc(C)n3)cc2c1 [Example 65, 5-[4-[[(2R)-1-ethylazetidin-2-yl]methoxy]-2-methyl-pyrazol-3-yl]-N-(2-methylpyrimidin-4-yl)pyrazolo[1,5-a]pyridin-2-amine]"
4,181 nM,"Cn1ncc(OC[C@H]2CCN2CCOC(F)(F)F)c1-c1ccn2nc(NC(=O)C3CC3)cc2c1 [Example 431, N-[5-[2-methyl-4-[[(2R)-1-[2-(trifluoromethoxy)ethyl]azetidin-2-yl]methoxy]pyrazol-3-yl]pyrazolo[1,5-a]pyridin-2-yl]cyclopropanecarboxamide]"
5,3.4 nM,"Cc1cc(Nc2cc3cc(-c4c(OC[C@H]5CCCN5C)cnn4C)ccn3n2)nc(C(F)(F)F)n1 [Example 283, 5-[2-methyl-4-[[(2R)-1-methylpyrrolidin-2-yl]methoxy]pyrazol-3-yl]-N-[6-methyl-2-(trifluoromethyl)pyrimidin-4-yl]pyrazolo[1,5-a]pyridin-2-amine]"
6,79 nM,"Cn1ncc(OC[C@H]2CCN2c2ccccn2)c1-c1ccn2nc(NC(=O)C3CC3)cc2c1 [Example 436, N-[5-[2-methyl-4-[[(2R)-1-(2-pyridyl)azetidin-2-yl]methoxy]pyrazol-3-yl]pyrazolo[1,5-a]pyridin-2-yl]cyclopropanecarboxamide]"
7,15.8 nM,"Cc1onc(OC[C@H]2CN(C)CC(C)(C)O2)c1-c1ccn2nc(NC(=O)C3CC3)cc2c1 [Example 214, N-[5-[5-methyl-3-[[(2R)-4,6,6-trimethylmorpholin-2-yl]methoxy]isoxazol-4-yl]pyrazolo[1,5-a]pyridin-2-yl]cyclopropanecarboxamide]"
8,116 nM,"CO[C@H]1CNC[C@@H]1Oc1cnn(C)c1-c1ccn2nc(NC(=O)C3CC3)cc2c1 (racemic) [Example 421, (rac-trans)-N-[5-[4-(4-methoxypyrrolidin-3-yl)oxy-2-methyl-pyrazol-3-yl]pyrazolo[1,5-a]pyridin-2-yl]cyclopropanecarboxamide]"
9,12 nM,"Cc1onc(OC[C@@](C)(N)c2ccccc2)c1-c1ccn2nc(NC(=O)C3CC3)cc2c1 [Example 225, N-[5-[3-[(2S)-2-amino-2-phenyl-propoxy]-5-methyl-isoxazol-4-yl]pyrazolo[1,5-a]pyridin-2-yl]cyclopropanecarboxamide]"
10,7.9 nM,"COc1cnc(Nc2cc3cc(-c4c(OC[C@H]5CCN5C)cnn4C)ccn3n2)cn1 [Example 154, N-(5-methoxypyrazin-2-yl)-5-[2-methyl-4-[[(2R)-1-methylazetidin-2-yl]methoxy]pyrazol-3-yl]pyrazolo[1,5-a]pyridin-2-amine]"
11,17.4 nM,"Cc1onc(OC[C@H](N)c2ccccc2)c1-c1ccn2nc(NC(=O)C3CC3)cc2c1 [Example 204, N-[5-[3-[(2R)-2-amino-2-phenyl-ethoxy]-5-methyl-isoxazol-4-yl]pyrazolo[1,5-a]pyridin-2-yl]cyclopropanecarboxamide]"
12,269 nM,"CC(C)N1CC[C@H]1COc1cnn(C)c1-c1ccn2nc(NC(=O)C3CC3)cc2c1 [Example 48, N-[5-[4-[[(2S)-1-isopropylazetidin-2-yl]methoxy]-2-methyl-pyrazol-3-yl]pyrazolo[1,5-a]pyridin-2-yl]cyclopropanecarboxamide]"
13,2.5 nM,"Cc1cncc(Nc2cc3cc(-c4c(OC[C@H]5CCN5C)cnn4C)ccn3n2)n1 [Example 46, 5-[2-methyl-4-[[(2R)-1-methylazetidin-2-yl]methoxy]pyrazol-3-yl]-N-(6-methylpyrazin-2-yl)pyrazolo[1,5-a]pyridin-2-amine]"
14,81.7 nM,"CCC1(OCc2cnn(C)c2-c2ccn3nc(NC(=O)C4CC4)cc3c2)CN(C)C1 [Example 468, N-[5-[4-[(3-ethyl-1-methyl-azetidin-3-yl)oxymethyl]-2-methyl-pyrazol-3-yl]pyrazolo[1,5-a]pyridin-2-yl]cyclopropanecarboxamide]"
15,35 nM,"Cc1onc(OC[C@H]2CCN2C)c1-c1ccc2nc(NC(=O)C3CC3)cn2c1 [Example 329, N-[6-[5-methyl-3-[[(2R)-1-methylazetidin-2-yl]methoxy]isoxazol-4-yl]imidazo[1,2-a]pyridin-2-yl]cyclopropanecarboxamide]"
16,6.8 nM,"CO[C@H]1CNC[C@H]1Oc1cnn(C(F)F)c1-c1ccn2nc(Nc3cc(C)nc(C)n3)cc2c1 [Example 96, 5-[2-(difluoromethyl)-4-[(3R,4S)-4-methoxypyrrolidin-3-yl]oxy-pyrazol-3-yl]-N-(2,6-dimethylpyrimidin-4-yl)pyrazolo[1,5-a]pyridin-2-amine]"
17,> 50000 nM,"CN1CC[C@@H](COc2cnn(Cc3ccccc3)c2-c2ccn3nc(NC(=O)C4CC4)cc3c2)C1 [Example 491, N-[5-[2-benzyl-4-[[(3R)-1-methylpyrrolidin-3-yl]methoxy]pyrazol-3-yl]pyrazolo[1,5-a]pyridin-2-yl]cyclopropanecarboxamide]"
18,155 nM,"Cn1ncc(OC[C@H]2CCN2CC#N)c1-c1ccn2nc(NC(=O)C3CC3)cc2c1 [Example 425, N-[5-[4-[[(2R)-1-(cyanomethyl)azetidin-2-yl]methoxy]-2-methyl-pyrazol-3-yl]pyrazolo[1,5-a]pyridin-2-yl]cyclopropanecarboxamide]"
19,89.9 nM,"Cc1onc(OC[C@@H]2CCCNC2)c1-c1ccn2nc(NC(=O)C3CC3)cc2c1 [Example 383, N-[5-[5-methyl-3-[[(3R)-3-piperidyl]methoxy]isoxazol-4-yl]pyrazolo[1,5-a]pyridin-2-yl]cyclopropanecarboxamide]"
20,1.1 nM,"Cn1ncc(OC[C@@]23CN[C@@H](CO2)C3)c1-c1ccn2nc(NC(=O)C3CC3)cc2c1 [Example 234, N-[5-[2-methyl-4-[[(1R,4R)-5-oxa-2-azabicyclo[2.2.1]heptan-4-yl]methoxy]pyrazol-3-yl]pyrazolo[1,5-a]pyridin-2-yl]cyclopropanecarboxamide]"
21,122 nM,"Cn1ncc(OC[C@@H]2CCCN2)c1-c1ccn2nc(NC(=O)C3CC3)cc2c1 [Example 412, N-[5-[2-methyl-4-[[(2S)-pyrrolidin-2-yl]methoxy]pyrazol-3-yl]pyrazolo[1,5-a]pyridin-2-yl]cyclopropanecarboxamide]"
22,204 nM,"Cc1onc(OCC2(F)CN(C)C2)c1-c1ccn2nc(NC(=O)C3CC3)cc2c1 [Example 84, N-[5-[3-[(3-fluoro-1-methyl-azetidin-3-yl)methoxy]-5-methyl-isoxazol-4-yl]pyrazolo[1,5-a]pyridin-2-yl]cyclopropanecarboxamide]"
23,103 nM,"Cn1ncc(OC[C@H]2CCN2)c1-c1ccn2nc(Nc3ccc(C4CC4)nn3)cc2c1 [Example 394, 5-[4-[[(2R)-azetidin-2-yl]methoxy]-2-methyl-pyrazol-3-yl]-N-(6-cyclopropylpyridazin-3-yl)pyrazolo[1,5-a]pyridin-2-amine]"
24,< 0.847 nM,"CCN1CC[C@@H]1COc1cnn(C)c1-c1ccn2nc(Nc3cncc(C)n3)cc2c1 [Example 20, (R)-5-(4-((1-Ethylazetidin-2-yl)methoxy)-1-methyl-1H-pyrazol-5-yl)-N-(6-methylpyrazin-2-yl)pyrazolo[1,5-a]pyridin-2-amine]"
25,52.4 nM,"CCN1CC[C@H]1COc1cnn(C)c1-c1ccn2nc(Nc3cnc(C)c(C)n3)cc2c1 [Example 359, N-(5,6-dimethylpyrazin-2-yl)-5-[4-[[(2S)-1-ethylazetidin-2-yl]methoxy]-2-methyl-pyrazol-3-yl]pyrazolo[1,5-a]pyridin-2-amine]"
26,81.3 nM,"Cc1cnc(Nc2cc3cc(-c4c(O[C@H]5CCN(C)C5)cnn4C)ccn3n2)cn1 [Example 454, 5-[2-methyl-4-[(3S)-1-methylpyrrolidin-3-yl]oxy-pyrazol-3-yl]-N-(5-methylpyrazin-2-yl)pyrazolo[1,5-a]pyridin-2-amine]"
27,15.3 nM,"Cc1cc(Nc2cc3cc(-c4c(OC[C@@H]5CCN5C)cnn4C)ccn3n2)nc(C(F)(F)F)n1 [Example 308, 5-[2-methyl-4-[[(2S)-1-methylazetidin-2-yl]methoxy]pyrazol-3-yl]-N-[6-methyl-2-(trifluoromethyl)pyrimidin-4-yl]pyrazolo[1,5-a]pyridin-2-amine]"
28,165 nM,"CN1CC[C@H](Oc2cnn(C)c2-c2ccn3nc(Nc4cc(C(F)(F)F)cnn4)cc3c2)C1 [Example 457, 5-[2-methyl-4-[(3S)-1-methylpyrrolidin-3-yl]oxy-pyrazol-3-yl]-N-[5-(trifluoromethyl)pyridazin-3-yl]pyrazolo[1,5-a]pyridin-2-amine]"
29,140 nM,"C[C@H]1CNC[C@H]1Oc1cnn(C)c1-c1ccn2nc(NC(=O)C3CC3)cc2c1 (single isomer, unassigned) [Example 413, (3*S,4*S)—N-[5-[2-methyl-4-(4-methylpyrrolidin-3-yl)oxy-pyrazol-3-yl]pyrazolo[1,5-a]pyridin-2-yl]cyclopropanecarboxamide]"
30,53.9 nM,"CN1CC(OCc2cnn(C)c2-c2ccn3nc(NC(=O)C4CC4)cc3c2)C1 [Example 361, N-[5-[2-methyl-4-[(1-methylazetidin-3-yl)oxymethyl]pyrazol-3-yl]pyrazolo[1,5-a]pyridin-2-yl]cyclopropanecarboxamide]"

row,SMILES,IC50
1,"Cn1ncc(O[C@H]2C[C@H]3COC[C@@H](C2)N3)c1-c1ccn2nc(NC(=O)C3CC3)cc2c1 [Example 313, N-[5-[2-methyl-4-[[(1R,5S)-3-oxa-9-azabicyclo[3.3.1]nonan-7-yl]oxy]pyrazol-3-yl]pyrazolo[1,5-a]pyridin-2-yl]cyclopropanecarboxamide]",29.6 nM

# Reference: US20240174662A1, “SMALL MOLECULE INHIBITORS OF SALT INDUCIBLE KINASES” (Janssen Biotech, Inc., priority 2021, published 2024)
